{"source": "patent US8710064B2", "about": "“2-aryl-4-quinazolinones and their pharmaceutical compositions” (China Medical University, priority 2011, dated 2014)", "key": {"[1]": {"test_system": "glioma cell lines C6, RT2, U87, U251, U373 and T98G", "assay": "MTS cell viability assay, glioma cell lines", "type": "cell-based, rat and human", "experimental": "The human glioma cell lines U87, U251, T98G, U373, and rat glioma cell line RT2 provided by Dr. Michael Hsiao (Genomics Research Center, Academia Sinica, Taiwan) were cultured in Dulbecco's Modified Eagle medium (DMEM) (Caisson) supplemented with 10% fetal bovine serum (FBS) (Sigma-Aldrich), 2 mM L-glutamine (Caisson), 100 U/ml penicillin, and 100 μg/ml streptomycin (Caisson). The rat glioma C6 cell line provided by Dr. Shun-Fen Tzeng (National Cheng Kung University, Taiwan) was cultured in DMEM/F12 (Caisson) supplemented with 10% fetal bovine serum, 2 mM L-glutamine, 100 U/ml penicillin, and 100 μg/ml streptomycin. The human normal glia cell line SVGP12, kindly provided by Dr. Michael Hsiao, was cultured in Minimum Essential Medium (MEM) (Invitrogen) supplemented with 10% fetal bovine serum, 2 mM L-glutamine, 100 U/ml penicillin, and […]. Primary glia cells were prepared by surgery. […]\nCell proliferation was determined by MTS (tetrazolium compound, 3-(4,5-dimethylthiazol-2-yl)-5-(3-carboxymethoxyphenyl)-2-(4-sulfophenyl)-2H-tetrazolium) assay (Promega). […] The absorbance of soluble formazan was measured at 490 nm with microplate reader (Molecular device). The cell viability was determined by the percentage of the absorption relative to untreated control. […]\nThe effects of MJ-66 on other glioma cell lines were further examined. […] Cell viability was assessed by MTS assay (mean±SEM, n=3). […]"}, "U87 glioma cells": {"test_system": "U87 glioma cells", "assay": "immunofluorescent staining, confocal microscopy", "type": "cell-based, human", "conditions": "60 nM, 24 hours", "experimental": "2×10^4 cells were seeded on the PDL-coating 12 mm-glass coverslips in 24-well plate and allowed to attach for 24 hours at 37° C. Culture medium containing MJ-66 (IC50) or DMSO (0.006%) was added, and cells were incubated at 37° C. At indicated time points (0, 12 and 24 hr), cells were fixed in 4% paraformaldehyde (PFA) in PBS for 30 minutes. After permeabilized by 0.2% Triton X-100 in 0.1 M PBS for 10 minutes and 10% methanol containing 0.2% Triton X-100 in 0.1 M PBS for 5 minutes, cells were blocked in 3% bovine serum albumin (BSA, Sigma) for 1 hour. The cells were immunostained for mitotic spindle with mouse monoclonal alpha-tubulin (Sigma-Aldrich), and mitotic center with rabbit polyclonal gamma-tubulin (Genetex), and then stained with appropriated secondary antibodies conjugated with Texas Red or FITC for 1 hr. […] Fluorescence images were detected by confocal laser scanning microscope (FV1000, Olympus).\nTo observe the morphology of MJ-66-treated glioma cells, C6 or U87 glioma cells were treated with medium or 60 nM MJ-66 for 24 hours and stained with Hoechst 33342 and antibodies against alpha-tubulin conjugated with FITC or antibodies against gamma-tubulin conjugated with FITC in combination with antibodies against alpha-tubulin conjugated with Texas Red were detected by confocal laser scanning microscope. […]"}, "[2]": {"test_system": "U87 human glioma xenograft", "assay": "in vivo xenograft animal model", "design": "species or system nude mice", "conditions": "1.36 microgram/kg intra-tumor every 2 days for 10 times, after 40 days", "experimental": "For tumorigenesis, U87 glioma cells (1×10^6 cells per 100 μl PBS) were inoculated subcutaneously into the right flank of 8-to-10-week-old male nude mice (BALB/cAnN-Foxnlnu/CrlNarl mice, National Laboratory Animal Center, Taiwan). Tumor growth was measured every three days. Tumor volume was calculated by volume (mm^3)=[…] (Zhou, Y. H., Wu, X., Tan, F., Shi, Y. X., Glass, T., Liu, T. J., Wathen, K., Hess, K. R., Gumin, J, Lang, F., et al. (2005). PAX6 suppresses growth of human glioblastoma cells. J Neurooncol 71, 223-229). When the tumors reached a mean volume of 50 to 70 mm^3, MJ-66 (1.36 microgram/kg in saline) or vehicle (DMSO or saline) was injected intratumor once per two days during 20 days.\nSince MJ-66 was able to effectively cause glioma to undergo mitotic catastrophe in vitro, whether MJ-66 could inhibit tumor growth in vivo was further examined by U87 human glioma xenograft animal model. Approximately 1×10^6 U87 glioma cells were injected subcutaneously into the nude mice and when tumors size reached 50 to 200 mm^3 in volume, MJ-66 (1.36 microgram/kg in saline) or vehicle (DMSO or saline denoted respectively as DMSO and Control) was administered by intra-tumor every 2 days for 10 times and tumor volume was measured for 50 days. Tumor growth was observed every three days."}}, "data": [{"smiles": "O=c1[nH]c(-c2cccc3ccccc23)nc2ccc(N3CCCC3)cc12", "note": "[Compound 23, 6-(Pyrrolidin-1-yl)-2-(naphthalen-1-yl)quinazolin-4-one]", "values": [{"measurement": "survival rates of glioma cell lines", "setting": "[1]; 0.00625-1 μM, 24, 48 and 72 hr, MTS assay", "value": "decreased in a time- and concentration-dependent manner"}, {"measurement": "IC50", "setting": "[1]; Glioma cell, in vitro, read-out: IC50, growth of glioma cells", "value": "~60", "unit": "nM"}, {"measurement": "nuclear morphology of U87 glioma cells", "setting": "U87 glioma cells", "value": "abnormal nuclear phenotype"}, {"measurement": "tumor growth", "setting": "[2]", "value": "significantly inhibited"}, {"measurement": "tumor volume", "setting": "[2]; N=8, p<0.01", "value": 435.1, "unit": "mm^3"}]}]}
